Results taken from patent US7297705B2, “Azaindolylalkylamine derivatives as 5-hydroxytryptamine-6 ligands” (Wyeth, priority 2001, dated 2007).

What follows are molecules tested against T1, human cloned 5-HT6 receptors (Homo sapiens, UniProt P50406) (assay: 5-HT6 binding affinity, [3H]-LSD displacement on membranes of Hela cells expressing human cloned 5-HT6 receptors). Details: not given.
T1 construct: expressed in transfected cells; host or cells: Hela cells
T1 sequence (P50406 whole entry): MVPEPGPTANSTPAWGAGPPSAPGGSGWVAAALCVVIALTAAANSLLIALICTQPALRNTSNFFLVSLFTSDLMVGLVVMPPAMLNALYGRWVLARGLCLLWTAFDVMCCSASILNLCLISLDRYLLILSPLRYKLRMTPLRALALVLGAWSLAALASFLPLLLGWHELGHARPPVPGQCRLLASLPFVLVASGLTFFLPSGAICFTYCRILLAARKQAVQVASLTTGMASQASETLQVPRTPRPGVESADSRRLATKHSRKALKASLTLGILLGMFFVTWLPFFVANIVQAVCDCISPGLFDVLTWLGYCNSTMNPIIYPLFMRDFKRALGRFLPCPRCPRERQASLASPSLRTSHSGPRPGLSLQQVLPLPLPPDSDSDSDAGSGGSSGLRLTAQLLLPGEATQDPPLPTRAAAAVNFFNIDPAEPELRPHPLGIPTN
Description: Comparative Evaluation of 5-HT6 Binding Affinity of Test Compounds
The affinity of test compounds for the serotonin 5-HT6 receptor is evaluated in the following manner. Cultured Hela cells expressing human cloned 5-HT6 receptors are harvested and centrifuged at low speed (1,000×g) for 10.0 min to remove the culture media. The harvested cells are suspended in half volume of fresh physiological phosphate buffered saline solution and recentrifuged at the same speed. This operation is repeated. The collected cells are then homogenized in ten volumes of 50 mM Tris.HCl (pH 7.4) and 0.5 mM EDTA. The homogenate is centrifuged at 40,000×g for 30.0 min and the precipitate is collected. The obtained pellet is resuspended in 10 volumes of Tris.HCl buffer and recentrifuged at the same speed. The final pellet is suspended in a small volume of Tris.HCl buffer and the tissue protein content is determined in aliquots of 10-25 μl volumes. Bovine Serum Albumin is used as the standard in the protein determination according to the method described in Lowry et al., J. Biol. Chem., 193:265 (1951). The volume of the suspended cell membranes is adjusted to give a tissue protein concentration of 1.0 mg/ml of suspension. The prepared membrane suspension (10 times concentrated) is aliquoted in 1.0 ml volumes and stored at −70° C. until used in subsequent binding experiments.
The reaction is allowed to proceed in the dark for 120 min at room temperature, at which time, the bound ligand-receptor complex is filtered off on a 96 well unifilter with a Packard Filtermate® 196 Harvester. The bound complex caught on the filter disk is allowed to air dry and the radioactivity is measured in a Packard TopCount® equipped with six photomultiplier detectors, after the addition of 40.0 μl Microscint®-20 scintillant to each shallow well. The unifilter plate is heat-sealed and counted in a PackardTopCount® with a tritium efficiency of 31.0%.
Binding in the presence of varying concentrations of test compound is expressed as a percentage of specific binding in the absence of test compound. The results are plotted as log % bound versus log concentration of test compound. […] A linear regression line of data points is plotted, from which the IC50 value is determined and the Ki value is determined based upon the following equation: Ki=IC50/(1+L/KD) where L is the concentration of the radioactive ligand used and KD is the dissociation constant of the ligand for the receptor, both expressed in nM.
Molecule NCCc1cn(S(=O)(=O)c2ccccc2Cl)c2ncccc12 [Example 120] has a Ki of 27 nM. Work on COc1cccc(S(=O)(=O)n2cc(CCN)c3ncccc32)c1 [Example 17] yielded a Ki of 2.9 nM. Work on NCCc1cn(S(=O)(=O)c2sc(Cl)cc2Br)c2ncccc12 [Example 134] yielded a Ki of 29 nM. Cc1ccc(F)cc1S(=O)(=O)n1cc(CCN)c2cccnc21 [Example 112] showed a Ki of 38.7 nM. NCCc1cn(S(=O)(=O)c2cnc3sccn23)c2ccncc12 [Example 39] gave a Ki of 47 nM. For CN(C)CCc1cn(S(=O)(=O)c2ccccc2C(F)(F)F)c2ncccc12 [Example 103], the Ki was 38 nM. Work on Cc1cccc(S(=O)(=O)n2cc(CCN)c3ncccc32)c1 [Example 22] yielded a Ki of 2.4 nM. Cc1ccc(S(=O)(=O)n2cc(CCN)c3cccnc32)cc1Cl [Example 111] was tested, and the Ki was 3.6 nM. With Cc1cc(S(=O)(=O)n2cc(CCN)c3cccnc32)c(C)cc1Cl [Example 114] the Ki was 17.7 nM. Molecule NCCc1cn(S(=O)(=O)c2cccc(Cl)c2Cl)c2cccnc12 [Example 23] has a Ki of 2.1 nM. For COc1cccc(S(=O)(=O)n2cc(CCN)c3cccnc32)c1 [Example 68, 2-[1-(3-Methoxybenzenesulfonyl)-1H-pyrrolo[2,3-b]pyridin-3-yl]ethylamine], the Ki was 33.3 nM. CN(C)CCc1cn(S(=O)(=O)c2c(Cl)nc3ccccn23)c2ncccc12 [Example 153] gave a Ki of 57.3 nM. For NCCc1cn(S(=O)(=O)c2ccc(N)cc2)c2ncccc12 [Example 83], the Ki was 2.4 nM. With CN(C)CCc1cn(S(=O)(=O)c2ccccc2F)c2ncccc12 [Example 147] the Ki was 47.3 nM. For NCCc1cn(S(=O)(=O)c2ccc3ccccc3c2)c2ncccc12 [Example 82], the Ki was 12 nM. For NCCc1cn(S(=O)(=O)c2ccccc2C(F)(F)F)c2ncccc12 [Example 89], the Ki was 38.3 nM. Work on NCCc1cn(S(=O)(=O)c2ccccc2F)c2cccnc12 [Example 24] yielded a Ki of 5.3 nM. NCCc1cn(S(=O)(=O)c2ccc(F)cc2Cl)c2ncccc12 [Example 110] showed a Ki of 38.3 nM. NCCc1cn(S(=O)(=O)c2c(Cl)nc3sccn23)c2ccncc12 [Example 35, 2-{[1-(6-Chloroimidazo[2,1-b]thiazol-5-yl)sulfonyl]-1H-pyrrolo[3,2-c]pyridin-3-yl)ethylamine] gave a Ki of 15.7 nM. For NCCc1cn(S(=O)(=O)c2cccc(C(F)(F)F)c2)c2ncccc12 [Example 90], the Ki was 21 nM. CN(C)CCc1cn(S(=O)(=O)c2cccc(C(F)(F)F)c2)c2ncccc12 [Example 104] showed a Ki of 29.3 nM. In the case of COc1cccc(S(=O)(=O)n2cc(CCN(C)C)c3cccnc32)c1 [Example 97], the Ki is reported as 24.6 nM. NCCc1cn(S(=O)(=O)c2cnc3sccn23)c2cccnc12 [Example 18] showed a Ki of 1.6 nM. NCCc1cn(S(=O)(=O)c2c(Cl)nc3sc(Cl)cn23)c2cccnc12 [Example 26] was tested, and the Ki was 7.3 nM. In the case of NCCc1cn(S(=O)(=O)c2cccc(Cl)c2Cl)c2ccncc12 [Example 47], the Ki is reported as 32.7 nM. For NCCc1cn(S(=O)(=O)c2cccc(Cl)c2)c2ncccc12 [Example 121], the Ki was 6 nM. For CN(C)CCc1cn(S(=O)(=O)c2cc(Cl)sc2Cl)c2ncccc12 [Example 152], the Ki was 53.7 nM. CC(C)c1ccc(S(=O)(=O)n2cc(CCN)c3cccnc32)cc1 [Example 93] gave a Ki of 39.3 nM. Work on NCCc1cn(S(=O)(=O)c2cccc(F)c2)c2cccnc12 [Example 20] yielded a Ki of 3.3 nM. Work on NCCc1cn(S(=O)(=O)c2cccc(F)c2)c2ncccc12 [Example 116] yielded a Ki of 13.4 nM. With CN(C)CCc1cn(S(=O)(=O)c2cccc(F)c2)c2ncccc12 [Example 148] the Ki was 28 nM. With NCCc1cn(S(=O)(=O)c2ccc(Cl)s2)c2ccncc12 [Example 43] the Ki was 47.5 nM. Work on CN(C)CCc1cn(S(=O)(=O)c2ccccc2)c2ncccc12 [Example 94] yielded a Ki of 40 nM. NCCc1cn(S(=O)(=O)c2cccc(C(F)(F)F)c2)c2cccnc12 [Example 13] was tested, and the Ki was 5 nM. Work on N#Cc1ccccc1S(=O)(=O)n1cc(CCN)c2cccnc21 [Example 87] yielded a Ki of 79 nM. NCCc1cn(S(=O)(=O)c2ccc(Cl)cc2)c2ncccc12 [Example 122] gave a Ki of 50 nM. Molecule NCCc1cn(S(=O)(=O)c2ccc(F)c(Cl)c2)c2ncccc12 [Example 109] has a Ki of 61.3 nM. COc1ccc(S(=O)(=O)n2cc(CCN(C)C)c3cccnc32)cc1OC [Example 99] gave a Ki of 76.6 nM. In the case of NCCc1cn(S(=O)(=O)c2c(Cl)nc3sccn23)c2ncccc12 [Example 154], the Ki is reported as 7.4 nM. NCCc1cn(S(=O)(=O)c2cc(Cl)c(Cl)s2)c2ncccc12 [Example 131] was tested, and the Ki was 19.7 nM. NCCc1cn(S(=O)(=O)c2ccc(Cl)s2)c2ncccc12 [Example 129] showed a Ki of 11.7 nM. Cc1ccc(C)c(S(=O)(=O)n2cc(CCN)c3cccnc32)c1 [Example 108] showed a Ki of 23.7 nM. Molecule CN(C)CCc1cn(S(=O)(=O)c2ccc(F)cc2Cl)c2ncccc12 [Example 144] has a Ki of 56.3 nM. Molecule NCCc1cn(S(=O)(=O)c2ccc(F)c(F)c2)c2ncccc12 [Example 118] has a Ki of 89.3 nM. For NCCc1cn(S(=O)(=O)c2c(Cl)nc3sccn23)c2cccnc12 [Example 11], the Ki was 0.8 nM. Cc1cc(S(=O)(=O)n2cc(CCN(C)C)c3cccnc32)c(C)cc1Cl [Example 146] was tested, and the Ki was 31.7 nM. Work on NCCc1cn(S(=O)(=O)c2cc(Br)c(Br)s2)c2ncccc12 [Example 133] yielded a Ki of 10.7 nM. Molecule COc1ccc(S(=O)(=O)n2cc(CCN)c3cccnc32)cc1 [Example 84] has a Ki of 74.6 nM. NCCc1cn(S(=O)(=O)c2ccc(C(F)(F)F)cc2Cl)c2cccnc12 [Example 14] showed a Ki of 15 nM. Molecule NCCc1cn(S(=O)(=O)c2ccc(F)c(F)c2)c2cccnc12 [Example 15] has a Ki of 16 nM. Molecule NCCc1cn(S(=O)(=O)c2ccc(Br)s2)c2ncccc12 [Example 130] has a Ki of 8.5 nM. Work on CN(C)CCc1cn(S(=O)(=O)c2ccc(Cl)s2)c2ncccc12 [Example 151] yielded a Ki of 13 nM.

Same assay, conditions: [3H]-LSD 3.0 nM, 120 min at room temperature, Ki=IC50/(1+L/KD); read-out: 5-HT6 Binding Ki
For NCCc1cn(S(=O)(=O)c2ccccc2Cl)c2cccnc12 [Example 1, 2-[1-(2-Clorobenzensulfonyl)-1H-pyrrolo[3,2-b]pyridin-3-yl]ethylamine], the Ki was 5 nM.

Same assay, conditions: read-out: 5-HT6 Binding Ki
With NCCc1cn(S(=O)(=O)c2cccc(C(F)(F)F)c2)c2ccncc12 [Example 46] the Ki was 173 nM. With NCCc1cn(S(=O)(=O)c2ccc(F)cc2F)c2ncccc12 [Example 71] the Ki was 113 nM. With COc1ccc(Cl)cc1S(=O)(=O)n1cc(CCN)c2cccnc21 [Example 113] the Ki was 186 nM. With NCCc1cn(S(=O)(=O)c2c(Cl)sc(Cl)c2Br)c2ncccc12 [Example 136] the Ki was 40 nM. With COc1ccc(S(=O)(=O)n2cc(CCN)c3cccnc32)cc1OC [Example 85] the Ki was 106 nM. In the case of NCCc1cn(S(=O)(=O)c2cccc3nsnc23)c2ncccc12 [Example 142], the Ki is reported as 69.7 nM. For NCCc1cn(S(=O)(=O)c2cc(Br)c(Cl)s2)c2ncccc12 [Example 135], the Ki was 16.3 nM. Molecule NCCc1cn(S(=O)(=O)c2ccccc2)c2ncccc12 [Example 80] has a Ki of 43 nM. NCCc1cn(S(=O)(=O)c2cc(Cl)sc2Cl)c2ncccc12 [Example 132] gave a Ki of 52 nM. Molecule NCCc1cn(S(=O)(=O)c2cccc(Cl)c2)c2cccnc12 [Example 16] has a Ki of 1.6 nM. Work on NCCc1cn(S(=O)(=O)c2cccc3nonc23)c2ncccc12 [Example 141] yielded a Ki of 42.3 nM. COc1cccc(S(=O)(=O)n2cc(CCN)c3cnccc32)c1 [Example 42] showed a Ki of 198 nM. Molecule NCCc1cn(S(=O)(=O)c2cccc(Br)c2)c2cccnc12 [Example 25] has a Ki of 3.5 nM. NCCc1cn(S(=O)(=O)c2ccccc2F)c2ncccc12 [Example 115] was tested, and the Ki was 39.3 nM. For CN(C)CCc1cn(S(=O)(=O)c2ccc3ccccc3c2)c2ncccc12 [Example 96], the Ki was 19.6 nM. Work on NCCc1cn(S(=O)(=O)c2c(Cl)nc3sc(Cl)cn23)c2ncccc12 [Example 158] yielded a Ki of 90.7 nM. For Cc1cccc(S(=O)(=O)n2cc(CCN)c3cnccc32)c1 [Example 45], the Ki was 152 nM. NCCc1cn(S(=O)(=O)c2c(Cl)nc3ccccn23)c2ncccc12 [Example 137] showed a Ki of 25 nM. Work on NCCc1cn(S(=O)(=O)c2ccccc2)c2ccncc12 [Example 44] yielded a Ki of 164 nM. In the case of NCCc1cn(S(=O)(=O)c2ccc(Cl)s2)c2cccnc12 [Example 5], the Ki is reported as 2 nM. NCCc1cn(S(=O)(=O)c2ccccc2)c2cccnc12 [Example 19] showed a Ki of 4.5 nM. Work on NCCc1cn(S(=O)(=O)c2cccc(Cl)c2)c2ccncc12 [Example 40] yielded a Ki of 110 nM. For NCCc1cn(S(=O)(=O)c2cccc(F)c2)c2ccncc12 [Example 41], the Ki was 170 nM. With CC(C)(C)c1ccc(S(=O)(=O)n2cc(CCN)c3cccnc32)cc1 [Example 91] the Ki was 114 nM.
